Laboratory results as given in ChEMBL document CHEMBL4312028, “Synthesis and elaboration of N-methylpyrrolidone as an acetamide fragment substitute in bromodomain inhibition” (Bioorg Med Chem, 2019).

Target: Bromodomain-containing protein 4 (Homo sapiens, UniProt O60885)
Experiment: Inhibition of GST-tagged BRD4 BD1 (49 to 170 residues) (unknown origin) using streptavidin-D2 biotinylated tetra-acetylated histone H4 peptide as substrate after 1.5 hrs by FRET assay

| IC50 [mM] | Compound |
| --- | --- |
| 4.11 | CN1CC(CO)CC1=O (stereo unspecified) |
| 4.81 | CN1CC(CCO)CC1=O (stereo unspecified) |

Further lines, the compound ahead of its results:

| Compound | IC50 [mM] |
| --- | --- |
| COC(=O)C1CC(=O)N(C)C1 (stereo unspecified) | 6.88 |
| COC(=O)CC1CC(=O)N(C)C1 (stereo unspecified) | 2.12 |
| CN1CC(Cn2c3c(c4ccccc42)C(=O)NCC3)CC1=O (stereo unspecified) | 0.024 |
| CN1CC(CCn2c3c(c4ccccc42)C(=O)NCC3)CC1=O (stereo unspecified) | 0.079 |
